The values below come from patent US20100278837A1, “Compositions And Methods For Reducing Cancer And Inflammation” (The Regents of the University of California, priority 2009, published 2010).

For one assay, the system named is LLC tumours. Put plainly: Subcutaneous LLC tumour growth, inflammation and angiogenesis in treated mice. The assay is classed as in vivo, C57BL/6 mice. Particulars: daily dosing. On the procedure: LLC cells were obtained from the American Type Culture Collection (ATCC) and Panc02 pancreatic ductal carcinoma cells were obtained from the NCI DCTDC Tumour Repository. The abdominal cavities of immunocompetent C57Bl6 mice and integrin α4Y991A knockin mice^30 were opened and the tails of the pancreas were exteriorized. One million Panc02 cells were injected into the pancreatic tail, the pancreas was placed back into the abdominal cavity and the incision was closed. Tumours were excised after 30 days. 5×10^5 LLC cells were injected subcutaneously or by intravenous tail vein injection into C57Bl6 or integrin α4Y991A mice. Tumours were excised at 7, 14 or 21 days, cryopreserved in O.C.T., lysed for RNA purification or collagenase-digested for flow cytometric analysis of CD11b and Gr1 expression. […] Tumours were harvested, weighed and further analyzed on day 8. […]
PI3-kinase γ inhibitor studies: C57BL/6 mice were subcutaneously implanted on d1 with 5×10^5 LLC or by intradermal injection with 5×10^5 B16 melanoma cells. […] Tumour volumes, weights and blood vessel densities, as well as myeloid cell densities were measured. […] Tumours were excised, weighed and analyzed after 3 weeks. […] Mice were sacrificed at 9 weeks of age and tumours were analyzed.

Assay [1] relates to CD11b+ myeloid cell adhesion to VCAM-1. Put plainly: Chemoattractant-stimulated CD11b+ myeloid cell adhesion to VCAM-1 / endothelial cells (Example 9 adhesion assay). The assay is classed as cell-based, mouse. On the procedure:
1×10^5 calcein-AM labelled human CD11b+ cells isolated from buffy coats from the San Diego Blood Bank or murine CD11b+ cells isolated from naïve (non-tumour bearing) or tumour-bearing mice were incubated on HUVEC monolayers or on plastic plates coated with 5 μg/ml recombinant soluble VCAM-1 or ICAM-1 (R&D Systems) for 30 minutes at 37° C. with humidity in the presence of LLC Tumour Conditioned Medium (TCM) or DMEM containing 200 ng/ml SDF1α, IL1β, IL6, TNFα or VEGF-A (R&D Systems). (SDF-1α and IL-1β were initially titrated to determine the minimum dose required to achieve near maximal stimulation of adhesion). TCM was prepared by incubating LLC cells in serum-free media for 18 h and filtering through 0.22 μm filters. After washing three times with warmed medium, adherent cells were quantified using a plate fluorimeter (GeniosPro, TECAN).
In some adhesion assays, cells were also incubated in 25 μg/ml function-blocking anti-integrin α4β1 (rat anti-murine, PS2 or mouse anti-human, HP2/1, gifts from Biogen-Idec), rat-anti-αM (anti-CD11b, M1/70) and isotype control antibodies (rat IgG2κ or mouse IgG1) or with 0.1 nM-10 μM doses of the small molecule inhibitor of integrin α4, ELN476063 (IC50=10 nM), a gift from Elan^14.
Additionally, labelled cells were incubated with HUVEC and rsVCAM coated plates in the presence of […] or SDF-1α and 1-10 μM inhibitors: pan-PI3 kinase inhibitors ([…], wortmannin), PI3-kinase α inhibitors (PI3K75, PIK2alpha, PI103), PI3-kinase β inhibitor (TGX221), PI3-kinase γ inhibitors (TG100-115, AS605240, AS604850), inert control, PLC inhibitor (U73122), geranylgeranyltransferase (Rap1-selective) inhibitors (GGTI-2147 and GGTI-298) or farnesyltransferase (Ras-selective) inhibitor (FTI-277), Akt inhibitors (Inhibitor X and peptide 18), mTOR inhibitor (rapamycin), ROCK inhibitor (Y27632), MEK inhibitor (PD98059), p38 inhibitor (SB202190), tyrosine kinase inhibitor (genestein) and PKA inhibitors (H89, KT5720). LY294002, wortmannin, genestein, U73122, GGTI-2147, GGTI-298, FTI-277, Y27632, PD98059, SB202190, H89 and KT5720 were from Calbiochem. PIK2alpha, PI103, AS605240, AS604850 and TGX221 were from Echelon. TG100-115 was prepared as described^25-26. To titrate the effect of various signalling protein inhibitors on myeloid cell adhesion stimulated by IL-1β or SDF-1α, cells were incubated in 1 nm to 100 μM PI3-kinase inhibitors TG00020 (a pan-PI3-kinase inhibitor), PI3-kinase α inhibitor (PI3Kalpha2) PI3-kinase β inhibitor (TGX221), PI3-kinase γ inhibitors (TG100-115, AS605240), an inert chemically matched control, farnesyltrasnferase inhibitors and geranylgeranyltransferase inhibitors. IC50s for GGTI and FTI were 1 μM. […] Adherent GFP+ cells were automatically quantified using MetaMorph software (Molecular Devices Software).

Another assay deals with CD11b+ myeloid cells. Nature of the assay: Adoptive transfer: arrest of pretreated CD11b+ myeloid cells in LLC tumours. The assay is classed as in vivo. Particulars: adoptively transferred into LLC tumour-bearing mice. As for the experimental part: Alternatively, 5×10^6 CFSE labelled CD11b+ cells from C57BL/6, α4Y991A, and PI3-kinase γ−/− mice were injected intravenously into mice bearing subcutaneous (5×10^5) d14 LLC tumours. In other studies, CD11b+ cells from WT mice were treated for 1 h with 1 μM PI3-kinase α inhibitor (PI3K75), PI3-kinase β inhibitor (TGX221), PI3-kinase γ inhibitor (TG100-115) and an inert control or with 10 μM PLC inhibitor (U73122), geranylgeranyltransferase inhibitor (GGT2147) or farnesyltransferase inhibitor (FTI-277) and then injected intravenously into mice bearing subcutaneous (5×10^5) d14 LLC tumours.
In other studies, K, N and H Ras, Rap1, PI3Kα, PI3Kβ, PI3Kγ, PI3Kδ, integrin α4 and integrin αM were knocked down by siRNA transfection of CD11b+ cells as described above. 48 h later, cells were labeled with CFSE and injected into mice with d14 LLC tumours (1×10^6 cells). Fluorescent cells accumulating in tumours and spleens were quantified 2 h and 24 h later by excising tissues, preparing single cell suspensions and performing FACs analysis at 488 nm. No differences were observed between untreated and non-silencing siRNA treated cells.

For `O=C1NC(=O)/C(=C\c2ccc3nccnc3c2)S1` [AS605240], the LLC tumour growth entry in the assay on LLC tumours was “suppressed tumour growth at similar doses”.
Usually IC50 stands for the point on the concentration scale where inhibition reaches its midpoint. In the case of `COC(=O)[C@H](CCSC)NC(=O)c1ccc(NC[C@@H](N)CS)cc1-c1ccccc1` [FTI], the “adhesion, ligand binding and integrin conformational changes” value in assay [1] (chemokine-stimulated myeloid cells) was “blocked adhesion, ligand binding and integrin conformational changes”. Further, the IC50 in assay [1] (stimulated by IL-1β or SDF-1α, read-out: IC50, myeloid cell adhesion) was determined as 1000 nM. Moreover, the “myeloid cell arrest in tumours in vivo” value in the assay on CD11b+ myeloid cells is reported as “suppressed myeloid cell arrest in tumours in vivo”.
